According to patent US20170094972A1, “Compounds and Compositions Having Knock-Down Activity Against Insect Pests” (priority 2015, published 2017):

These molecules were tested on Aedes aegypti (assay: 12 well plate knockdown test). Details: 1 h, Rate 0.2 PPM, read-out: Aedes aegypti 1 hour % KD.
Type: in vivo
Method: (§1) The individual wells of a twelve (12) well tissue culture plates were treated with 100 μl of an ethanol solution containing a test compound at a defined concentration. Once the deposits were dry, five non-blood fed adult female Aedes aegypti or Anopheles stephensi (between two to five day old) were added to each well, and sustained with a 10% sucrose solution in a cotton wool plug. Assessment of the knockdown after 1 hour was carried out. Where multiple replicates of a treatment have been undertaken, the mean of those replicates is reported.

| SMILES | pest or weed control at 0.2 ppm |
| --- | --- |
| NC(=S)c1cnccc1C(F)(F)F [I.22] | 100% |
| CC(=O)CNC(=O)c1cnccc1C(F)(F)F [I.23] | 40% |
| CS(=O)(=O)NC(=O)c1cnccc1C(F)(F)F [I.24] | 100% |
| C[Si](C)(C)CNC(=O)c1cnccc1C(F)(F)F [I.25] | 100% |
| CC(NC(=O)c1cnccc1C(F)(F)F)C(N)=S (stereo not shown) [I.26] | 0% |
| CCNNC(=O)c1cnccc1C(F)(F)F [I.27] | 0% |
| CN(OC(=O)Oc1ccccc1)C(=O)c1cnccc1C(F)(F)F [I.28] | 20% |
| COCCOC(=O)ON(C(=O)c1cnccc1C(F)(F)F)C(C)C [I.29] | 0% |

Same assay, conditions: 1 h, Rate 2 PPM, read-out: Aedes aegypti 1 hour % KD

| SMILES | pest or weed control at 2 ppm |
| --- | --- |
| NC(=S)c1cnccc1C(F)(F)F [I.22] | 100% |
| CC(=O)CNC(=O)c1cnccc1C(F)(F)F [I.23] | 100% |
| CS(=O)(=O)NC(=O)c1cnccc1C(F)(F)F [I.24] | 100% |
| C[Si](C)(C)CNC(=O)c1cnccc1C(F)(F)F [I.25] | 100% |
| CC(NC(=O)c1cnccc1C(F)(F)F)C(N)=S (stereo not shown) [I.26] | 100% |
| CCNNC(=O)c1cnccc1C(F)(F)F [I.27] | 100% |
| CN(OC(=O)Oc1ccccc1)C(=O)c1cnccc1C(F)(F)F [I.28] | 40% |
| COCCOC(=O)ON(C(=O)c1cnccc1C(F)(F)F)C(C)C [I.29] | 0% |

Same assay, conditions: 1 h, Rate 20 PPM, read-out: Aedes aegypti 1 hour % KD

| SMILES | pest or weed control at 20 ppm |
| --- | --- |
| NC(=S)c1cnccc1C(F)(F)F [I.22] | 100% |
| CC(=O)CNC(=O)c1cnccc1C(F)(F)F [I.23] | 100% |
| CS(=O)(=O)NC(=O)c1cnccc1C(F)(F)F [I.24] | 100% |
| C[Si](C)(C)CNC(=O)c1cnccc1C(F)(F)F [I.25] | 100% |
| CC(NC(=O)c1cnccc1C(F)(F)F)C(N)=S (stereo not shown) [I.26] | 100% |
| CCNNC(=O)c1cnccc1C(F)(F)F [I.27] | 100% |
| CN(OC(=O)Oc1ccccc1)C(=O)c1cnccc1C(F)(F)F [I.28] | 60% |
| COCCOC(=O)ON(C(=O)c1cnccc1C(F)(F)F)C(C)C [I.29] | 0% |

Same assay, conditions: 1 h, Rate 200 PPM, read-out: Aedes aegypti 1 hour % KD

| SMILES | pest or weed control at 200 ppm |
| --- | --- |
| NC(=S)c1cnccc1C(F)(F)F [I.22] | 100% |
| CC(=O)CNC(=O)c1cnccc1C(F)(F)F [I.23] | 100% |
| CS(=O)(=O)NC(=O)c1cnccc1C(F)(F)F [I.24] | 100% |
| C[Si](C)(C)CNC(=O)c1cnccc1C(F)(F)F [I.25] | 100% |
| CC(NC(=O)c1cnccc1C(F)(F)F)C(N)=S (stereo not shown) [I.26] | 100% |
| CCNNC(=O)c1cnccc1C(F)(F)F [I.27] | 100% |
| CN(OC(=O)Oc1ccccc1)C(=O)c1cnccc1C(F)(F)F [I.28] | 100% |
| COCCOC(=O)ON(C(=O)c1cnccc1C(F)(F)F)C(C)C [I.29] | 100% |

The molecules below were run on Anopheles stephensi (assay: 12 well plate knockdown test). Details: 1 h, Rate 0.2 PPM, read-out: Anopheles stephensi 1 hour % KD.
Type: in vivo
Method: as §1

| SMILES | pest or weed control at 0.2 ppm |
| --- | --- |
| NC(=S)c1cnccc1C(F)(F)F [I.22] | 40% |
| CC(=O)CNC(=O)c1cnccc1C(F)(F)F [I.23] | 0% |
| CS(=O)(=O)NC(=O)c1cnccc1C(F)(F)F [I.24] | 40% |
| C[Si](C)(C)CNC(=O)c1cnccc1C(F)(F)F [I.25] | 80% |
| CC(NC(=O)c1cnccc1C(F)(F)F)C(N)=S (stereo not shown) [I.26] | 0% |
| CCNNC(=O)c1cnccc1C(F)(F)F [I.27] | 0% |
| CN(OC(=O)Oc1ccccc1)C(=O)c1cnccc1C(F)(F)F [I.28] | 0% |
| COCCOC(=O)ON(C(=O)c1cnccc1C(F)(F)F)C(C)C [I.29] | 20% |

Same assay, conditions: 1 h, Rate 2 PPM, read-out: Anopheles stephensi 1 hour % KD

| SMILES | pest or weed control at 2 ppm |
| --- | --- |
| NC(=S)c1cnccc1C(F)(F)F [I.22] | 60% |
| CC(=O)CNC(=O)c1cnccc1C(F)(F)F [I.23] | 20% |
| CS(=O)(=O)NC(=O)c1cnccc1C(F)(F)F [I.24] | 60% |
| C[Si](C)(C)CNC(=O)c1cnccc1C(F)(F)F [I.25] | 80% |
| CC(NC(=O)c1cnccc1C(F)(F)F)C(N)=S (stereo not shown) [I.26] | 0% |
| CCNNC(=O)c1cnccc1C(F)(F)F [I.27] | 0% |
| CN(OC(=O)Oc1ccccc1)C(=O)c1cnccc1C(F)(F)F [I.28] | 0% |
| COCCOC(=O)ON(C(=O)c1cnccc1C(F)(F)F)C(C)C [I.29] | 60% |

Same assay, conditions: 1 h, Rate 20 PPM, read-out: Anopheles stephensi 1 hour % KD

| SMILES | pest or weed control at 20 ppm |
| --- | --- |
| NC(=S)c1cnccc1C(F)(F)F [I.22] | 60% |
| CC(=O)CNC(=O)c1cnccc1C(F)(F)F [I.23] | 40% |
| CS(=O)(=O)NC(=O)c1cnccc1C(F)(F)F [I.24] | 100% |
| C[Si](C)(C)CNC(=O)c1cnccc1C(F)(F)F [I.25] | 100% |
| CC(NC(=O)c1cnccc1C(F)(F)F)C(N)=S (stereo not shown) [I.26] | 100% |
| CCNNC(=O)c1cnccc1C(F)(F)F [I.27] | 100% |
| CN(OC(=O)Oc1ccccc1)C(=O)c1cnccc1C(F)(F)F [I.28] | 40% |
| COCCOC(=O)ON(C(=O)c1cnccc1C(F)(F)F)C(C)C [I.29] | 100% |

Same assay, conditions: 1 h, Rate 200 PPM, read-out: Anopheles stephensi 1 hour % KD

| SMILES | pest or weed control at 200 ppm |
| --- | --- |
| NC(=S)c1cnccc1C(F)(F)F [I.22] | 100% |
| CC(=O)CNC(=O)c1cnccc1C(F)(F)F [I.23] | 100% |
| CS(=O)(=O)NC(=O)c1cnccc1C(F)(F)F [I.24] | 100% |
| C[Si](C)(C)CNC(=O)c1cnccc1C(F)(F)F [I.25] | 100% |
| CC(NC(=O)c1cnccc1C(F)(F)F)C(N)=S (stereo not shown) [I.26] | 100% |
| CCNNC(=O)c1cnccc1C(F)(F)F [I.27] | 100% |
| CN(OC(=O)Oc1ccccc1)C(=O)c1cnccc1C(F)(F)F [I.28] | 100% |
| COCCOC(=O)ON(C(=O)c1cnccc1C(F)(F)F)C(C)C [I.29] | 100% |
